Experimental data as given in ChEMBL document CHEMBL3603837, “Indole Glucocorticoid Receptor Antagonists Active in a Model of Dyslipidemia Act via a Unique Association with an Agonist Binding Site” (J Med Chem, 2015).

Assays:
[1] = biological target: T1, Mineralocorticoid receptor (Homo sapiens, UniProt P08235); assay: biochemical
T1 sequence (P08235 whole entry): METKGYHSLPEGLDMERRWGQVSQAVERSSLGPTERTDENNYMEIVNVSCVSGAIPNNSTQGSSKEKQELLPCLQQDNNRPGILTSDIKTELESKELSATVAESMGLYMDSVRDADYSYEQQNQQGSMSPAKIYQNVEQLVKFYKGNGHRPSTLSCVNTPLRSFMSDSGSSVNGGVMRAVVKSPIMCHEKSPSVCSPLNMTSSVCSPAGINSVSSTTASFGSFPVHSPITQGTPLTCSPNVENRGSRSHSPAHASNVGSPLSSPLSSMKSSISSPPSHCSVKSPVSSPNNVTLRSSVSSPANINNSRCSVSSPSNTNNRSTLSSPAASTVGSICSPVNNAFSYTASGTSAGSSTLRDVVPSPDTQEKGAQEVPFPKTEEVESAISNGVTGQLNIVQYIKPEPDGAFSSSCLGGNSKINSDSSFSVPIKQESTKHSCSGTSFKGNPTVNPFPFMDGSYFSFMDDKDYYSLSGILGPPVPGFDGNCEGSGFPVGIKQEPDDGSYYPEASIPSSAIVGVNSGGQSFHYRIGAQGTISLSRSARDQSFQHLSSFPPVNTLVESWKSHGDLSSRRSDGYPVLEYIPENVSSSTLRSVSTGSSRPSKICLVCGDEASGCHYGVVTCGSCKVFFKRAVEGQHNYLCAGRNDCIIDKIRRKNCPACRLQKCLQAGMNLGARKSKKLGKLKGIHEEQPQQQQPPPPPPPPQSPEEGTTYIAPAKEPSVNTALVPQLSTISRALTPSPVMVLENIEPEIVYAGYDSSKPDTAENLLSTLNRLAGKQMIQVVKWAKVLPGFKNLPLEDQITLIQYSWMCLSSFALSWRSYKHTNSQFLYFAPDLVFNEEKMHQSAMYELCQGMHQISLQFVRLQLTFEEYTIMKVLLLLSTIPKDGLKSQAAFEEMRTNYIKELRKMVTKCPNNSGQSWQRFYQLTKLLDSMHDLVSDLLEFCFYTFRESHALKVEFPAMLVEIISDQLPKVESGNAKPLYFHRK
Description: Displacement of [3H]-aldosterone from human mineralocorticoid receptor expressed in HEK293 cells by scintillation counting based radioligand competition binding assay

[2] = biological target: T2, Progesterone receptor (Homo sapiens, UniProt P06401); assay: Displacement of [3H]-methyltrienolone from human progesterone receptor expressed in HEK293 cells by scintillation counting based radioligand competition binding assay
T2 sequence (P06401 whole entry): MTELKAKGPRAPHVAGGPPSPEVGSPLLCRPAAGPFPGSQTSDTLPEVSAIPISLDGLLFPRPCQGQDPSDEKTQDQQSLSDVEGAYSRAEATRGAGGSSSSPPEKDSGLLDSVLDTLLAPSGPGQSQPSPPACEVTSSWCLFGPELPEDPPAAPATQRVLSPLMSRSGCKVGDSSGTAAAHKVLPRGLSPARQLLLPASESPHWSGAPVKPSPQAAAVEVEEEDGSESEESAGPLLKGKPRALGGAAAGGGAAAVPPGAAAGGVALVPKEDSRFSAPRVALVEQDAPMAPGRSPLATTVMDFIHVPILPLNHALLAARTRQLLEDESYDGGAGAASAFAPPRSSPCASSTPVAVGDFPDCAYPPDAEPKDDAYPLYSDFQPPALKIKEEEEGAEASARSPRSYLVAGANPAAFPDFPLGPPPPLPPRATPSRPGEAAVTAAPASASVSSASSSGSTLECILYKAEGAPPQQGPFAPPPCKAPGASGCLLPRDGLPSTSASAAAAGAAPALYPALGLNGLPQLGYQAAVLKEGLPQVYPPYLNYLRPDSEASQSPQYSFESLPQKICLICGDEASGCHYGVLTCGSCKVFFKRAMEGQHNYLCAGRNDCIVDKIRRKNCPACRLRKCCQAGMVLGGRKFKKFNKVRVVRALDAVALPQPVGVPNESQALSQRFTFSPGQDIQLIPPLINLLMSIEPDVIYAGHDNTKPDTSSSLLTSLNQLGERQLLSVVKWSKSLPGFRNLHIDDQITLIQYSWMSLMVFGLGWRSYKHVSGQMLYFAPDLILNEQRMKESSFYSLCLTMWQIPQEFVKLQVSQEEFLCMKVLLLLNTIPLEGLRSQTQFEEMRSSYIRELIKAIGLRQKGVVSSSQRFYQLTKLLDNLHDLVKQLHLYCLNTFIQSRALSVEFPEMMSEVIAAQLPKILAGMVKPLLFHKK

[3] = biological target: T3, Androgen receptor (Homo sapiens, UniProt P10275); assay: biochemical
T3 sequence (P10275 whole entry): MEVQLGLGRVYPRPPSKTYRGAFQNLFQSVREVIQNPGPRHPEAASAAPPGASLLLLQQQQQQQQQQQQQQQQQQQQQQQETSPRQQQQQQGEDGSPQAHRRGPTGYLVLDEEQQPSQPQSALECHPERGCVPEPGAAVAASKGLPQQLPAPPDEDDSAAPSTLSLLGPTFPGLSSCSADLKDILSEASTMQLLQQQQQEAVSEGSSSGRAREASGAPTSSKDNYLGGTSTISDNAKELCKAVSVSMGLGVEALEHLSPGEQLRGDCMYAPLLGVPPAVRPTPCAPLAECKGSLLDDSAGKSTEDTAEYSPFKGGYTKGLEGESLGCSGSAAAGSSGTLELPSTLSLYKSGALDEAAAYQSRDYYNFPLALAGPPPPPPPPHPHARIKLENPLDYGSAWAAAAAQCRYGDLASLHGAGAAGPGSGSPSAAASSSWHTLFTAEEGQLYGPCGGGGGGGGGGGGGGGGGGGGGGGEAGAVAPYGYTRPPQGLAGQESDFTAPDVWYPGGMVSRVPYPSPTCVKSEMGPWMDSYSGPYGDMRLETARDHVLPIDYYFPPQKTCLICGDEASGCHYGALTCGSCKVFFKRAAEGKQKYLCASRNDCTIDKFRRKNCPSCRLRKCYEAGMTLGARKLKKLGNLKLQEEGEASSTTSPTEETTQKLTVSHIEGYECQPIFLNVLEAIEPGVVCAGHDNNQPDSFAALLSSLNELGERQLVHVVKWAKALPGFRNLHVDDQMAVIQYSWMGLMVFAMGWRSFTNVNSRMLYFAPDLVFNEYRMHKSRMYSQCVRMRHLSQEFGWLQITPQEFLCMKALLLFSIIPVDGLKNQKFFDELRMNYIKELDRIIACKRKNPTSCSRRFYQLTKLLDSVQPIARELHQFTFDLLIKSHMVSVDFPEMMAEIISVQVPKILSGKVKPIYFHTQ
Description: Displacement of [3H]-methyltrienolone from human androgen receptor expressed in HEK293 cells by scintillation counting based radioligand competition binding assay

SMILES	Ki [1] [nM]	Ki [2] [nM]	Ki [3] [nM]
COc1cc(NS(C)(=O)=O)c2[nH]c(C)c(-c3ccccc3)c2c1	3890	3940	4060
COc1cc(F)ccc1-c1c(CN(C)Cc2ccccc2)[nH]c2c(NS(C)(=O)=O)cc(C(C)(C)C)cc12	3880	253	231
COc1cc(F)ccc1-c1c(CN(C)Cc2ccccc2)[nH]c2c(N)cc(F)cc12	2120	4190	4140
CS(=O)(=O)Nc1cccc2cc[nH]c12	952	104	355
COc1cc(F)ccc1-c1c(Cc2ccccc2)[nH]c2c(NS(C)(=O)=O)cc(C(C)C)cc12	4250	4000	684
COc1ccc(Cl)cc1-c1c[nH]c2c(NS(C)(=O)=O)cccc12	4470	233	697

Molecules with a lower Ki [2], results first:

Ki [1] [nM]	Ki [2] [nM]	Ki [3] [nM]	SMILES
	86	401	COc1ccccc1-c1c[nH]c2c(NS(C)(=O)=O)cccc12
1580	64.2	232	COc1cc(F)ccc1-c1c(CN(C)Cc2ccccc2)[nH]c2c(NS(C)(=O)=O)cc(C(C)C)cc12
3920	44.2	905	COc1ccc(F)cc1-c1c(-c2ccccc2)[nH]c2c(NS(C)(=O)=O)cccc12
225	29	496	CS(=O)(=O)Nc1cccc2c(-c3ccc(F)cc3)c[nH]c12
38.4	22.3	1120	COc1cc(NS(C)(=O)=O)c2[nH]c(C)c(-c3cc(F)ccc3OC)c2c1
44.7	20.5	1130	COc1cc(F)ccc1-c1c(C)[nH]c2c(NS(C)(=O)=O)cc(F)cc12
2.1	5.51	91	CS(=O)(=O)Nc1cccc2c(-c3cccc(Cl)c3)c[nH]c12
